Results reported in PubChem BioAssay (NCI).
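Growth conditions: 96-well plates. Treatment: test compound, 48 hours, 5 concentrations. Analysis: linear interpolation between bracketing concentrations; unreached endpoints set to highest concentration. Here, GI50 denotes the concentration required for 50% inhibition of growth. TGI marks complete inhibition of growth.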

Experiments:
Experiment in all cases: NCI-60 cell line screen, 48 h
CCRF-CEM leukemia = tested on: CCRF-CEM leukemia
NCI/ADR-RES ovarian = tested on: NCI/ADR-RES ovarian
NCI-H23 lung = tested on: NCI-H23 lung
OVCAR-4 ovarian = tested on: OVCAR-4 ovarian
T-47D breast = tested on: T-47D breast
SW-620 colon = tested on: SW-620 colon
SK-OV-3 ovarian = tested on: SK-OV-3 ovarian
MOLT-4 leukemia = tested on: MOLT-4 leukemia
SNB-19 CNS = tested on: SNB-19 CNS
SR leukemia = tested on: SR leukemia
DU-145 prostate = tested on: DU-145 prostate
HT29 colon = tested on: HT29 colon
RXF 393 renal = tested on: RXF 393 renal
HL-60(TB) leukemia = tested on: HL-60(TB) leukemia
PC-3 prostate = tested on: PC-3 prostate
EKVX NSCLC = tested on: EKVX NSCLC
SF-268 CNS = tested on: SF-268 CNS
786-0 renal = tested on: 786-0 renal
IGROV1 ovarian = tested on: IGROV1 ovarian
HS 578T breast = tested on: HS 578T breast
HOP-92 NSCLC = tested on: HOP-92 NSCLC
MDA-MB-435 = tested on: MDA-MB-435
OVCAR-8 ovarian = tested on: OVCAR-8 ovarian
COLO 205 colon = tested on: COLO 205 colon
K-562 leukemia = tested on: K-562 leukemia
A498 renal = tested on: A498 renal
HCT-116 colon = tested on: HCT-116 colon
NCI-H226 lung = tested on: NCI-H226 lung
SNB-75 CNS = tested on: SNB-75 CNS
SK-MEL-28 melanoma = tested on: SK-MEL-28 melanoma
MCF7 breast = tested on: MCF7 breast
BT-549 breast = tested on: BT-549 breast
SF-295 CNS = tested on: SF-295 CNS
MALME-3M melanoma = tested on: MALME-3M melanoma
LOX IMVI melanoma = tested on: LOX IMVI melanoma
RPMI-8226 leukemia = tested on: RPMI-8226 leukemia
CAKI-1 renal = tested on: CAKI-1 renal
HOP-62 NSCLC = tested on: HOP-62 NSCLC
A549 NSCLC = tested on: A549 NSCLC
SF-539 CNS = tested on: SF-539 CNS
HCC-2998 colon = tested on: HCC-2998 colon
NCI-H522 lung = tested on: NCI-H522 lung
U251 CNS = tested on: U251 CNS
HCT-15 colon = tested on: HCT-15 colon
OVCAR-3 ovarian = tested on: OVCAR-3 ovarian
ACHN renal = tested on: ACHN renal
SN12C renal = tested on: SN12C renal
KM12 colon = tested on: KM12 colon
NCI-H460 lung = tested on: NCI-H460 lung
UO-31 renal = tested on: UO-31 renal
UACC-257 melanoma = tested on: UACC-257 melanoma
TK-10 renal = tested on: TK-10 renal
MDA-MB-468 breast = tested on: MDA-MB-468 breast
M14 melanoma = tested on: M14 melanoma
SK-MEL-5 melanoma = tested on: SK-MEL-5 melanoma
SK-MEL-2 melanoma = tested on: SK-MEL-2 melanoma
OVCAR-5 ovarian = tested on: OVCAR-5 ovarian
MDA-MB-231 breast = tested on: MDA-MB-231 breast
UACC-62 melanoma = tested on: UACC-62 melanoma

O=C(CSc1nnc(-c2ccc(-c3nc4ccccc4[nH]3)cc2)o1)Nc1ccc(Cl)cc1
GI50 (CCRF-CEM leukemia): 5.58 µM
TGI (CCRF-CEM leukemia): 33.1 µM
GI50 (NCI/ADR-RES ovarian): 14.8 µM
TGI (NCI/ADR-RES ovarian): 85.7 µM
GI50 (NCI-H23 lung): 7.12 µM
TGI (NCI-H23 lung): 23.2 µM
GI50 (OVCAR-4 ovarian): 9.74 µM
TGI (OVCAR-4 ovarian): 22.2 µM
GI50 (T-47D breast): 9.84 µM
TGI (T-47D breast): 44.1 µM
GI50 (SW-620 colon): 3.58 µM
TGI (SW-620 colon): 15.8 µM
GI50 (SK-OV-3 ovarian): 18.4 µM
TGI (SK-OV-3 ovarian): 43.7 µM
GI50 (MOLT-4 leukemia): 4.42 µM
TGI (MOLT-4 leukemia): > 100 µM
GI50 (SNB-19 CNS): 14.6 µM
TGI (SNB-19 CNS): 29.7 µM
GI50 (SR leukemia): 10.1 µM
TGI (SR leukemia): > 100 µM
GI50 (DU-145 prostate): 4.62 µM
TGI (DU-145 prostate): 17.4 µM
GI50 (HT29 colon): 6.62 µM
TGI (HT29 colon): 30 µM
GI50 (RXF 393 renal): 4.41 µM
TGI (RXF 393 renal): 16.7 µM
GI50 (HL-60(TB) leukemia): 11.1 µM
TGI (HL-60(TB) leukemia): > 100 µM
GI50 (PC-3 prostate): 3.9 µM
TGI (PC-3 prostate): 16.7 µM
GI50 (EKVX NSCLC): 10.8 µM
TGI (EKVX NSCLC): 28.1 µM
GI50 (SF-268 CNS): 4.14 µM
TGI (SF-268 CNS): 20 µM
GI50 (786-0 renal): 2.04 µM
TGI (786-0 renal): 4.45 µM
GI50 (IGROV1 ovarian): 15.1 µM
TGI (IGROV1 ovarian): 31.3 µM
GI50 (HS 578T breast): 11.9 µM
TGI (HS 578T breast): 42.6 µM
GI50 (HOP-92 NSCLC): 5.06 µM
TGI (HOP-92 NSCLC): 21.5 µM
GI50 (MDA-MB-435): 3.3 µM
TGI (MDA-MB-435): 13.5 µM
GI50 (OVCAR-8 ovarian): 5.91 µM
TGI (OVCAR-8 ovarian): 22.3 µM
GI50 (COLO 205 colon): 23 µM
TGI (COLO 205 colon): > 100 µM
GI50 (K-562 leukemia): 4.59 µM
TGI (K-562 leukemia): > 100 µM
GI50 (A498 renal): 18.6 µM
TGI (A498 renal): 42.9 µM
GI50 (HCT-116 colon): 4.14 µM
TGI (HCT-116 colon): 17.3 µM
GI50 (NCI-H226 lung): 2.5 µM
TGI (NCI-H226 lung): 9.38 µM
GI50 (SNB-75 CNS): 2.44 µM
TGI (SNB-75 CNS): 14.5 µM
GI50 (SK-MEL-28 melanoma): 4.02 µM
TGI (SK-MEL-28 melanoma): 14.9 µM
GI50 (MCF7 breast): 3.73 µM
TGI (MCF7 breast): 19.3 µM
GI50 (BT-549 breast): 3.4 µM
TGI (BT-549 breast): 14 µM
GI50 (SF-295 CNS): 7.2 µM
TGI (SF-295 CNS): 22 µM
GI50 (MALME-3M melanoma): 3.37 µM
TGI (MALME-3M melanoma): 13.2 µM
GI50 (LOX IMVI melanoma): 1.94 µM
TGI (LOX IMVI melanoma): 4.4 µM
GI50 (RPMI-8226 leukemia): 8.39 µM
TGI (RPMI-8226 leukemia): 80.3 µM
GI50 (CAKI-1 renal): 3.51 µM
TGI (CAKI-1 renal): 13.2 µM
GI50 (HOP-62 NSCLC): 5.74 µM
TGI (HOP-62 NSCLC): 22.1 µM
GI50 (A549 NSCLC): 3.65 µM
TGI (A549 NSCLC): 16.4 µM
GI50 (SF-539 CNS): 5.26 µM
TGI (SF-539 CNS): 17.9 µM
GI50 (HCC-2998 colon): 24.5 µM
TGI (HCC-2998 colon): > 100 µM
GI50 (NCI-H522 lung): 4.94 µM
TGI (NCI-H522 lung): 21.6 µM
GI50 (U251 CNS): 15.4 µM
TGI (U251 CNS): 30.8 µM
GI50 (HCT-15 colon): 6.16 µM
TGI (HCT-15 colon): 23.9 µM
GI50 (OVCAR-3 ovarian): 5.78 µM
TGI (OVCAR-3 ovarian): 19.1 µM
GI50 (ACHN renal): 5.05 µM
TGI (ACHN renal): 17.9 µM
GI50 (SN12C renal): 10.1 µM
TGI (SN12C renal): 22.3 µM
GI50 (KM12 colon): 10.6 µM
TGI (KM12 colon): 39.5 µM
GI50 (NCI-H460 lung): 2.93 µM
TGI (NCI-H460 lung): 10.9 µM
GI50 (UO-31 renal): 13 µM
TGI (UO-31 renal): 25.7 µM
GI50 (UACC-257 melanoma): 9.3 µM
TGI (UACC-257 melanoma): 26.9 µM
GI50 (TK-10 renal): 24.8 µM
TGI (TK-10 renal): 66.9 µM
GI50 (MDA-MB-468 breast): 14.7 µM
TGI (MDA-MB-468 breast): 29.6 µM
GI50 (M14 melanoma): 4.9 µM
TGI (M14 melanoma): 18.3 µM
GI50 (SK-MEL-5 melanoma): 12.6 µM
TGI (SK-MEL-5 melanoma): 26.7 µM
GI50 (SK-MEL-2 melanoma): 15.9 µM
TGI (SK-MEL-2 melanoma): 35.3 µM
GI50 (OVCAR-5 ovarian): 14.8 µM
TGI (OVCAR-5 ovarian): 36.6 µM
GI50 (MDA-MB-231 breast): 11.4 µM
TGI (MDA-MB-231 breast): 24 µM
GI50 (UACC-62 melanoma): 11.4 µM
TGI (UACC-62 melanoma): 23.9 µM
